Values after ≈ are worked out from the molar mass of the structure shown. Read-outs that look alike come from different tables or passages of the source.
Legend:
[1] = test system: 30 strains of coliform bacilli collected from the living body of humans; test: MIC50 and MIC70 against 30 clinical strains, antibiotics alone and combined with present compound; assay type: cell-based; settings: for MIC50: Homo sapiens, 20 h, concentration inhibiting growth of 50% of 30 strains; for MIC70, Present compound as combined with ampicillin: MIC of ampicillin with present compound (10 pg/ml [sic]); for MIC70, Present compound as combined with ampicillin / MIC70, Present compound as combined with cephalexin / MIC70, Present compound as combined with mecillinam / MIC70, Present compound as combined with piperacillin: 70% of 30 strains; for MIC70, Present compound as combined with cephalexin: MIC of cephalexin with present compound (10 pg/ml [sic]); for MIC70, Present compound as combined with mecillinam: MIC of mecillinam with present compound (10 pg/ml [sic]); for MIC70, Present compound as combined with piperacillin: MIC of piperacillin with present compound (10 pg/ml [sic])
Experimental: (§1) The MIC of ampicillin as combined with the present compound (10 µg/ml) was measured against the same bacteria. In the method, the bacteria cultivated in Mueller Hinton Broth (product of DIFCO) and diluted to 10' CFU/ml were inoculated into the same medium containing ampicillin and the present compound in a specific concentration, and incubated at 37°C for 20 hours. […] The bacteria as used in the test were those capable of producing β-lactamase, among which the bacteria marked ^* in the table are those collected from the living body of human hosts and the others are a stock culture.
The compounds of the present invention, ampicillin, mecillinam, piperacillin and cephalexin, each singly used, were also tested for minimal inhibitory concentration against 30 strains of coliform bacilli collected from the living body of humans. The MIC of each antibiotic as combined with the present compound (10 pg/ml) was likewise measured. Table 4 to 7 indicate the results in which MlC50 and MlC70 indicate the minimal inhibitory concentration for inhibiting the growth of 50% and 70% respectively of the strains. The MICs of the present compounds singly used were all more than 25 µg/ml.

[2] = biological target: penicillinase (β-lactamase) from Bacillus SP; test: β-lactamase inhibitory activity by microiodometry, penicillin G as substrate; assay type: biochemical; settings: read-out: 50% Inhibitory Concentration
Experimental: The inhibitory activity against penicillinase (β-lactamase) from Bacillus SP was measured by . microiodometry [Tanpakushitsu Kakusan Koso (Protein Nucleic Acid Enzyme), vol. 23, No. 5, pp 391-400 (1978)] using a penicillin G as a substrate.

E.coli TH—13 = test: MIC by micro-broth dilution method; assay type: cell-based; settings: Escherichia coli, 20 h
Experimental: as §1
(§2) The same test as above was carried out to determine the antibacterial activity of the sodium 2β-(4,5-dimethoxycarbonyl-1,2,3-triazole-1-yl)methyl-2a-methylpenam-3a-carboxylate-1,1-dioxide (Compound 26) obtained in Example 24.

P.mirabilis 121—1 = test: MIC by micro-broth dilution method; assay type: cell-based; settings: Proteus mirabilis, 20 h, Table 3, inoculate 10^7 CFU/ml, singly used
Experimental: as §1, §2

P.vulgaris IID OX—19 = test: MIC by micro-broth dilution method; assay type: cell-based; settings: Proteus vulgaris, 20 h
Experimental: as §1, §2

S.aureus ATCC 90124 = test: MIC by micro-broth dilution method; assay type: cell-based; settings: Staphylococcus aureus, ATCC90124, 20 h
Experimental: as §1, §2

S.aureus S—54 = test: MIC by micro-broth dilution method; assay type: cell-based; settings: Staphylococcus aureus
Experimental: as §1, §2

E.coli TH—34 = test: MIC by micro-broth dilution method; assay type: cell-based; settings: Escherichia coli, 20 h, Table 3, inoculate 10^7 CFU/ml, singly used
Experimental: as §1, §2

S.marcescens TH—05 = test: MIC by micro-broth dilution method; assay type: cell-based; settings: Serratia marcescens, 20 h
Experimental: as §1, §2

P.Mirabilis 121 = test: MIC by micro-broth dilution method; assay type: cell-based; settings: Proteus mirabilis, 20 h, Table 2, read-out: MIC, Ampicillin (singly used)
Experimental: as §1

E.coli TH—397 = test: MIC by micro-broth dilution method; assay type: cell-based; settings: Escherichia coli, 20 h, Table 2, read-out: MIC, Ampicillin (singly used)
Experimental: as §1, with “In” for “The MIC of ampicillin as combined with the present compound (10 µg/ml) was measured against the same bacteria. In”

[3] = biological target: penicillinase (β-lactamase) from Bacillus SP; test: β-lactamase inhibitory activity by pH stat method, penicillin G as substrate; assay type: biochemical; settings: read-out: 50% β-lactamase inhibitory concentration
[4] = concentration inhibiting growth of 70% of 30 strains
[5] = Table 2, read-out: MIC, Ampicillin (singly used)
[6] = Table 3, inoculate 10^7 CFU/ml, singly used, read-out: MIC, Ampicillin
[7] = Table 3, inoculate 10^7 CFU/ml, singly used, read-out: MIC, Comp. 26

CC1=C(C(=O)O)N2C(=O)[C@@H](NC(=O)[C@H](N)c3ccccc3)[C@H]2SC1 [Cephalexin, cephalexin, reference compound]
MIC50 ([1]; read-out: MIC50, Cephalexin singly used): 25 µg/mL
MIC70, Cephalexin singly used [1, 4]: 100 µg/mL

COC(=O)c1cn(C[C@@]2(C)[C@H](C(=O)O)N3C(=O)C[C@H]3S2(=O)=O)nn1 [Compound 12, sodium 2β-(4-methoxycarbonyl-1,2,3-triazole-1-yl)methyl-2a-methylpenam-3α-carboxylate-1,1-dioxide]
IC50 [2]: 49 nM

CCN1CCN(C(=O)N[C@@H](C(=O)N[C@@H]2C(=O)N3[C@@H]2SC(C)(C)[C@@H]3C(=O)O)c2ccccc2)C(=O)C1=O [Piperacillin, piperacillin, reference compound]
MIC50 ([1]; read-out: MIC50, Piperacillin singly used): 50 µg/mL
MIC70, Piperacillin singly used [1, 4]: 200 µg/mL

C[C@]1(Cn2ccnn2)[C@H](C(=O)O)N2C(=O)C[C@H]2S1(=O)=O [Compound 22, sodium 2α-methyl-2β-(1,2,3-triazole-1-yl)-methylpenam-3α-carboxylate-1,1-dioxide]
IC50 [2]: 690 nM
MIC70, Present compound as combined with ampicillin [1]: 6.25 µg/mL
MIC70, Present compound as combined with cephalexin [1]: 50 µg/mL
MIC70, Present compound as combined with mecillinam [1]: 0.2 µg/mL
MIC70, Present compound as combined with piperacillin [1]: 1.56 µg/mL

CC1(C)S[C@@H]2[C@H](NC(=O)[C@H](N)c3ccccc3)C(=O)N2[C@H]1C(=O)O [Ampicillin, ampicillin]
MIC (E.coli TH—13; [5]): 400 µg/mL (≈ 1140 µM)
MIC (E.coli TH—13; [6]): 400 µg/mL (≈ 1140 µM)
MIC (P.mirabilis 121—1; read-out: MIC, Ampicillin): 800 µg/mL (≈ 2290 µM)
MIC (P.vulgaris IID OX—19; [5]): 100 µg/mL (≈ 286 µM)
MIC (P.vulgaris IID OX—19; [6]): 25 µg/mL (≈ 71.5 µM)
MIC (S.aureus ATCC 90124; [5]): 25 µg/mL (≈ 71.5 µM)
MIC (S.aureus ATCC 90124; [6]): 50 µg/mL (≈ 143 µM)
MIC (S.aureus S—54; 20 h, Table 3, inoculate 10^7 CFU/ml, singly used, read-out: MIC, Ampicillin): 100 µg/mL (≈ 286 µM)
MIC (S.aureus S—54; Table 2, 37°C, 20 hours, read-out: MIC, Ampicillin (singly used)): 25 µg/mL (≈ 71.5 µM)
MIC (E.coli TH—34; read-out: MIC, Ampicillin): 800 µg/mL (≈ 2290 µM)
MIC (S.marcescens TH—05; [5]): > 400 µg/mL
MIC (S.marcescens TH—05; [6]): 800 µg/mL (≈ 2290 µM)
MIC (P.Mirabilis 121): > 400 µg/mL
MIC (E.coli TH—397): 400 µg/mL (≈ 1140 µM)
MIC50 ([1]; read-out: MIC50, Ampicillin singly used): 400 µg/mL
MIC70, Ampicillin singly used [1, 4]: >400 µg/mL

CCOC(=O)c1cn(C[C@@]2(C)[C@H](C(=O)O)N3C(=O)C[C@H]3S2(=O)=O)nn1 [Compound 7, sodium 2β-(4-ethoxycarbonyl-1,2,3-triazole-1-yl)methyl-2α-methylpenam-3α-caboxylate-1,1-dioxide]
IC50 [2]: 54 nM
MIC70, Present compound as combined with ampicillin [1]: 50 µg/mL
MIC70, Present compound as combined with cephalexin [1]: 100 µg/mL
MIC70, Present compound as combined with mecillinam [1]: 0.39 µg/mL
MIC70, Present compound as combined with piperacillin [1]: 6.25 µg/mL

COC(=O)c1nnn(C[C@@]2(C)[C@H](C(=O)O)N3C(=O)C[C@H]3S2(=O)=O)c1C(=O)OC [Compound 26, sodium 2β-(4,5-dimethoxycarbonyl-1,2,3-triazole-1-yl)-methyl-2α-methylpenam-3α-carboxylate-1,1-dioxide]
MIC (E.coli TH—13; [7]): > 50 µg/mL
MIC (P.mirabilis 121—1; read-out: MIC, Comp. 26): > 50 µg/mL
MIC (P.vulgaris IID OX—19; [7]): 25 µg/mL
MIC (S.aureus ATCC 90124; [7]): > 50 µg/mL
MIC (S.aureus S—54; 20 h, Table 3, inoculate 10^7 CFU/ml, singly used, read-out: MIC, Comp. 26): > 50 µg/mL
MIC (E.coli TH—34; read-out: MIC, Comp. 26): > 50 µg/mL
MIC (S.marcescens TH—05; [7]): > 50 µg/mL
IC50 [3]: 300 nM

CC1(C)S[C@@H]2[C@H](/N=C/N3CCCCCC3)C(=O)N2[C@H]1C(=O)O [Mecillinam, mecillinam, reference compound]
MIC50 ([1]; read-out: MIC50, Mecillinam singly used): 3.13 µg/mL
MIC70, Mecillinam singly used [1, 4]: 12.5 µg/mL

C[C@]1(Cn2nncc2C(=O)O)[C@H](C(=O)O)N2C(=O)C[C@H]2S1(=O)=O [Compound 17, dipotassium 2β-(5-carboxy-1,2,3-triazole-1-yl)methyl-2α-methylpenam-3α-carboxylate-1,1-dioxide]
IC50 [2]: 1700 nM
MIC70, Present compound as combined with ampicillin [1]: 100 µg/mL
MIC70, Present compound as combined with cephalexin [1]: 12.5 µg/mL
MIC70, Present compound as combined with mecillinam [1]: 0.39 µg/mL
MIC70, Present compound as combined with piperacillin [1]: 50 µg/mL

COC(=O)c1cnnn1C[C@@]1(C)[C@H](C(=O)O)N2C(=O)C[C@H]2S1(=O)=O [Compound 13, sodium 2β-(5-methoxycarbonyl-1,2,3-triazote-1-yl)methyl-2α-methylpenam-3α-carboxylate-1,1-dioxide]
IC50 [2]: 300 nM

C[C@]1(Cn2nnc(C(=O)O)c2C(=O)O)[C@H](C(=O)O)N2C(=O)C[C@H]2S1(=O)=O [Compound 39, tri-sodium 2β-(4,5-dicarboxy-1,2,3-triazole-1-yl)methyl-2α-methylpenam-3α-carboxylate-1,1-dioxide]
IC50 [2]: 2300 nM

C[C@]1(Cn2cc(C(=O)O)nn2)[C@H](C(=O)O)N2C(=O)C[C@H]2S1(=O)=O [Compound 16, dipotassium 2β-(4-carboxy-1,2,3-triazole-1-yl)methyl-2α-methylpenam-3α-carboxylate-1,1-dioxide]
IC50 [2]: 600 nM
MIC70, Present compound as combined with ampicillin [1]: 6.25 µg/mL
MIC70, Present compound as combined with cephalexin [1]: 25 µg/mL
MIC70, Present compound as combined with mecillinam [1]: 0.1 µg/mL
MIC70, Present compound as combined with piperacillin [1]: 3.13 µg/mL

C[C@]1(Cn2cc([Si](C)(C)C)nn2)[C@H](C(=O)O)N2C(=O)C[C@H]2S1(=O)=O [Compound 24, sodium 2α-methyl-2β-(4-trimethylsilyl-1,2,3-triazole-1-yl)-methylpenam-3α-carboxylate-1,1-dioxide]
IC50 [2]: 510 nM

CCOC(=O)c1cnnn1C[C@@]1(C)[C@H](C(=O)O)N2C(=O)C[C@H]2S1(=O)=O [Compound 11, sodium 2β-(5-ethoxycarbonyl-1,2,3-triazole-1-yl)methyl-2α-methylpenam-3α-carboxylate-1,1-dioxide]
IC50 [2]: 340 nM
MIC70, Present compound as combined with ampicillin [1]: 100 µg/mL
MIC70, Present compound as combined with cephalexin [1]: 100 µg/mL
MIC70, Present compound as combined with mecillinam [1]: 0.39 µg/mL
MIC70, Present compound as combined with piperacillin [1]: 25 µg/mL
